Consider 15 compounds from US20080280891A1, “Anti-cancer agents and uses thereof” (Locus Pharmaceuticals, Inc., priority 2006, published 2008).

Assay [1] deals with Jurkat T-cell leukemic cells. In words: Cell cycle assay (Example 163), G2/M block in Jurkat cells. It is filed as cell-based. The settings on record: Homo sapiens, Jurkat, 24 h, flow cytometry (PI), Table 2. As to the method: (§1) MCF-7 breast cancer cells and Jurkat T-cell leukemic cells were grown (and maintained) in EMEM and RPMI media, respectively, containing 10% fetal calf serum.
Test agents were added a concentration of 0.1 μM. Twenty-fours after test agent addition, cells were analyzed for cell cycle status as described below.
(§2) Cell cycle status was analyzed by flow cytometry. Briefly, cells were collected and washed with FACs buffer (Pharmingen) and resuspended and fixed in 1 mL of 80% ethanol for 1 hr. Cells were washed with FACs buffer and resuspended in propidium iodide(PI)/RNase staining buffer (Pharmingen). PI is a fluorescent dye that labels nucleic acids such as DNA. The fluorescence within a cell (in the presence of PI) is proportional to the amount of DNA within a cell. The cell content of DNA is an indices of status in the cell cycle. […] Cells in the S phase have DNA content that lies between these extremes.
(§3) For testing of cell cycle effects of test agents the percentage of cells within the G1 and G2/M phase were measured.

Assay [2] has as its system MCF-7 breast cancer cells. The experiment in a line: Cell cycle assay (Example 163), G2/M block in MCF-7 cells. The assay is classed as cell-based. The settings on record: Homo sapiens, MCF7, 24 h, flow cytometry (PI), Table 2. As to the method:
as §1
Cells were allowed to adhere for 24 hrs. After adherence, cell culture media was changed to that containing 0.5% FCS. Thirty minutes post-media change, test compounds were added at a concentration of 1 μM. Twenty-fours after test agent addition, cells were analyzed for cell cycle status as described below.
as §2, §3
On the technique in general: A flow cytometer gives signals particle by particle.

As for `O=C(c1cccnc1)c1cc(-c2cccc3[nH]ccc23)cc(N2CCCC2=O)c1` [1-[3-(1H-Indol-4-yl)-5-(pyridine-3-carbonyl)-phenyl]-pyrrolidin-2-one], the activation at 0.1 µM in assay [1] was less than 50%. In assay [2], the activation at 1 µM was not below 50%.

The compound `NC(=O)c1cc(Nc2cnccn2)cc(-c2cccc3[nH]ccc23)c1` [3-(1H-Indol-4-yl)-5-(pyrazin-2-ylamino)-benzamide] displayed an activation at 0.1 µM in assay [1] of less than 50%. In assay [2], the activation at 1 µM was not below 50%.

Compound `NC(=O)c1cc(Nc2cccnc2)cc(-c2cccc3[nH]ccc23)c1` [3-(1H-Indol-4-yl)-5-(pyridin-3-ylamino)-benzamide] showed an activation at 0.1 µM in assay [1] not below 50%. The same compound registered an activation at 1 µM in assay [2] not below 50%.

In assay [1], `COC(=O)c1cc(Nc2cccnc2)cc(-c2cccc3[nH]ccc23)c1` [3-(1H-Indol-4-yl)-5-(pyridin-3-ylamino)-benzoic acid methyl ester] had an activation at 0.1 µM not below 50%. The compound also displayed an activation at 1 µM in assay [2] not below 50%.

Take `Oc1cc(Nc2ccccc2)cc(-c2cccc3[nH]ccc23)c1` [3-(1H-Indol-4-yl)-5-phenylamino-phenol]: in assay [1], the activation at 0.1 µM is not below 50%. Also, the activation at 1 µM in assay [2] was not below 50%.

The compound `Oc1cc(Nc2cccnc2)cc(-c2cccc3c2OCO3)c1` [3-Benzo[1,3]dioxol-4-yl-5-(pyridin-3-ylamino)-phenol] registered an activation at 0.1 µM in assay [1] not below 50%. This compound also yielded an activation at 1 µM in assay [2] not below 50%.

`N#Cc1cc2c(-c3cc(O)cc(Nc4cccnc4)c3)cccc2[nH]1` [4-[3-Hydroxy-5-(pyridin-3-ylamino)-phenyl]-1H-indole-2-carbonitrile] yielded an activation at 0.1 µM in assay [1] not below 50%. Also, the activation at 1 µM in assay [2] is less than 50%.

`N#Cc1ccc(Nc2cc(O)cc(-c3cccc4[nH]ccc34)c2)cn1` [5-[3-Hydroxy-5-(1H-indol-4-yl)-phenylamino]-pyridine-2-carbonitrile] returned an activation at 0.1 µM in assay [1] not below 50%. This compound also came in with an activation at 1 µM in assay [2] not below 50%.

As to `NC(=O)c1ccc(Nc2cc(O)cc(-c3cccc4[nH]ccc34)c2)cn1` [5-[3-Hydroxy-5-(1H-indol-4-yl)-phenylamino]-pyridine-2-carboxylic acid amide], the activation at 0.1 µM in assay [1] was not below 50%. This compound came in with an activation at 1 µM in assay [2] not below 50%.

Compound `O=COCCOCc1ncccc1Nc1cc(O)cc(-c2cccc3[nH]ccc23)c1` [Formic acid 2-{3-[3-hydroxy-5-(1H-indol-4-yl)-phenylamino]-pyridin-2-ylmethoxy}-ethyl ester] gave an activation at 0.1 µM in assay [1] of less than 50%. Also, in assay [2], the activation at 1 µM was not below 50%.

As for `COc1cc(C(=O)c2cc(NC(C)=O)cc(-c3cccc4[nH]ccc34)c2)ccn1` [N-[3-(1H-Indol-4-yl)-5-(2-methoxy-pyridine-4-carbonyl)-phenyl]-acetamide], the activation at 0.1 µM in assay [1] is not below 50%. The compound also yielded an activation at 1 µM in assay [2] not below 50%.

Compound `CS(=O)(=O)Nc1cc(Nc2cccnc2)cc(-c2cccc3[nH]ccc23)c1` [N-[3-(1H-Indol-4-yl)-5-(pyridin-3-ylamino)-phenyl]-methanesulfonamide] registered an activation at 0.1 µM in assay [1] of less than 50%. The compound further showed an activation at 1 µM in assay [2] not below 50%.

Regarding `CC(=O)Nc1cc(SCc2cccnc2)cc(-c2cccc3[nH]ccc23)c1` [N-[3-(1H-Indol-4-yl)-5-(pyridin-3-ylmethylsulfanyl)-phenyl]-acetamide], the activation at 0.1 µM in assay [1] was less than 50%. Besides, in assay [2], the activation at 1 µM is not below 50%.

Compound `CCC(=O)Nc1cc(C(=O)c2cccnc2)cc(-c2cccc3[nH]ccc23)c1` [N-[3-(1H-Indol-4-yl)-5-(pyridine-3-carbonyl)-phenyl]-propionamide] registered an activation at 0.1 µM in assay [1] of less than 50%. In addition, the activation at 1 µM in assay [2] was not below 50%.

On to `CC(=O)Nc1cc(-c2cccc3[nH]ccc23)cc(S(=O)(=O)c2cccnc2)c1` [N-[3-(1H-Indol-4-yl)-5-(pyridine-3-sulfonyl)-phenyl]-acetamide], for which the activation at 0.1 µM in assay [1] is less than 50%. This compound also had an activation at 1 µM in assay [2] not below 50%.
